Data published in patent US8188268B2, “Porous crystalline saccharide, its preparation and uses” (Kabushiki Kaisha Hayashibara Seibutsu Kagaku Kenkyujo, priority 2005, dated 2012).
Where “and” joins values, the source holds several entries; their conditions need not be identical. Identical values can stand only once. Like-named read-outs stand apart in the source and are kept apart here.

Experiments:
[1] = Dissolution test against cold water at 10° C.; assay type: physicochemical; details: for Time required for dissolution, No. 1 / Time required for dissolution, No. 2 / Time required for dissolution, No. 3 / Time required for dissolution, No. 4 / Time required for dissolution, No. 5 / Time required for dissolution, Average: 20 ml water 10° C., about 300 rpm, 0.5 g trehalose or 0.2 g maltose; for Time required for dissolution, Average: average of 5
Method: A dissolution test against cold water at 10° C. was carried out using the porous anhydrous crystalline trehalose prepared by treating at 70° C. for 60 min in Example 1, the porous anhydrous crystalline maltose prepared by the method in Example 3, and the porous hydrous crystalline maltose prepared by the method in Example 5, as samples. The results were compared with those of the controls, anhydrous crystalline trehalose, hydrous crystalline trehalose, and hydrous crystalline maltose.
Twenty milliliters of 10° C.-cold water was placed in a test tube with an internal diameter of 18 mm, and then stirred using a stirring bar. A crystalline saccharide sample was put into the test tube, and the time required for the complete dissolution (for the disappearance of precipitate particles) was measured. The amount of samples was set to be 0.5 g in the case of trehalose and to be 0.2 g in the case of maltose, and the stirring rate was set to be about 300 rpm in any case. The measurement of time for dissolution under the above conditions was carried out 5-times at each sample.

[2] = Oil-keeping ability with salad oil; assay type: physicochemical; parameters: key to Oil-keeping ability: (5 g salad oil / g saccharide added at endpoint) x 100; details: for Oil-keeping ability: (5 g salad oil / amount of added saccharide) x 100
Method: The oil-keeping ability of each crystalline saccharide was measured using the porous anhydrous crystalline trehalose prepared by treating at 70° C. for 60 min in Example 1, the control hydrous crystalline trehalose, and the control anhydrous crystalline trehalose as crystalline trehalose samples; and the porous anhydrous crystalline maltose prepared by the method in Example 3, the control hydrous crystalline β-maltose, and the control anhydrous crystalline α-maltose, and the control anhydrous crystalline β-maltose as crystalline maltose samples, and the results were compared.
The measurement of the oil-keeping ability of the crystalline saccharide was carried out according to the method disclosed in Japanese Patent Kokai No. 31,650/84. Five grams of “NISSHIN SALAD OIL”, a salad oil commercialized by Nisshin OiliO Group, Ltd., Tokyo, Japan, was placed in a 50-ml plastic container, and then gradually admixed with each powdery crystalline saccharide with stirring. […] When the amount of the mixed saccharide is further increased, the agglomerate increase in solidity and then loosen. The point that the agglomerate is loosened is estimated to be the endpoint and the oil-keeping ability was calculated using the following formula. Oil-Keeping Ability =(The amount of salad oil(5 g)/the amount of added PCS*)×100 *: Powdery crystalline saccharide tm Formula 1

[3] = Flax seed oil powder: keeping of powdery form; assay type: physicochemical; details: 1 part flax seed oil + 10 parts saccharide as base
Method: One part by weight of flax seed oil was admixed with 10 parts by weight of the porous anhydrous crystalline trehalose, prepared by treating at 70° C. for 60 min in Example 1, and then the mixture was kneaded to make into a powdery product. In the same manner, powdery products were prepared by using “TREHA®”, hydrous crystalline trehalose commercialized by Hayashibara Shoji Inc., Okayama, Japan, and anhydrous crystalline trehalose, prepared from hydrous crystalline trehalose by drying in vacuo at a high temperature according to the conventional method, as controls. […] The flaxseed oil powder can be preferably used as a supplement.

[4] = Specific surface area by nitrogen adsorption isotherms (BET); assay type: physicochemical; details: for Specific surface area: nitrogen adsorption isotherms, BET
Method: Specific surface area of the porous anhydrous crystalline trehalose was measured by the nitrogen adsorption isotherms using “MODEL ASAP-2400”, a specific surface area/pore size distribution analyzer commercialized by Micromeritics, Georgia, USA. […] The result was analyzed by the BET (Brunnauer, Emmet, and Teller) method. The commercial anhydrous crystalline trehalose, a reagent grade, commercialized by Hayashibara Biochemical Laboratories Inc., Okayama, Japan, was used as a control. […] Further, those pore size distribution charts are in FIG. 19. […] The results of the analysis on the specific surface area and the pore size distribution are summarized in Table 7, and the pore size distribution chart was in FIG. 24. As a control, “MALTOSE OM”, a hydrous crystalline maltose product with maltose purity of 98% or higher, produced by Hayashibara Co., Ltd., Okayama, Japan, was used.

[5] = Pore size distribution by the mercury filling method; assay type: physicochemical; details: for Median pore diameter: control maltose values are from space between particles, not pores
[6] = Preservation test of flax seed oil powder, volatile aldehydes by GC; assay type: physicochemical; details: flax seed oil powder with this base
Method: As disclosed in Japanese Patent Kokai No. 123,195/2001 applied for by the same applicant of the present invention, it has been known that trehalose inhibits the decomposition of fatty acids and the formation of volatile aldehydes. Therefore, a preservation test of the flax seed oil powders were carried out according to the following method by using the flax seed oil powders prepared in Example 9 by using the porous anhydrous crystalline trehalose of the present invention or the control anhydrous crystalline trehalose as powderizing bases, and the amounts of the formed volatile aldehydes were compared.
One gram each of the flax seed oil powder was put into two 20 ml-vial, sealed with Butyl-rubber stopper, and then preserved in an incubator at 40° C. for three weeks. The vial was collected at the point of before the preservation or after preserving for 21 days and heated at 80° C. for 5 min. Then, 2 ml of vapor phase gas in the vial was directly subjected to gas chromatography (GC) analysis to determine the amount of volatile aldehydes. GC analysis was carried out according to the following conditions.
• Gas chromatograph: GC-17B, produced by Shimadzu Corporation, Kyoto, Japan; • Column: TC-FFAP capillary column (ID 0.52 mm×30 m), produced by GL Sciences Inc., Tokyo, Japan; • Column temperature: 40° C. to 100° C.

[7] = Crystal moisture content (Karl Fischer) on moisture absorption and drying; assay type: physicochemical
Method: Hydrous crystalline saccharides were prepared from the respective porous anhydrous crystalline saccharide using the porous anhydrous crystalline trehalose, obtained by treating at 70° C. for 60 min in Example 1, and the porous anhydrous crystalline maltose, obtained by treating at 70° C. for 480 min in Example 3, as materials. About 50 g of the porous anhydrous crystalline saccharide and about 150 ml of deionized water were placed in respective container. Then, the both open containers were placed in the same closed vessel and leaved to stand at 27° C. for two days. By the treatment, the anhydrous crystalline saccharide was allowed to absorb moisture and converted into hydrous crystal. The resulting hydrous crystal was dried in a drying machine at 50° C. for one hour to remove excess moisture. The moisture contents of the porous anhydrous crystalline trehalose and the porous anhydrous crystalline maltose before and after the treatment to absorb moisture and after drying are in Table 6. The moisture content of crystals was measured by the conventional Karl Fischer's method.

[8] = background art; cited from earlier work
[9] = listed as control anhydrous crystalline trehalose
[10] = 21 days after preservation at 40° C.
[11] = listed as Porous anhydrous crystalline trehalose (Present invention)
[12] = 21 days after preservation at 40° C., listed as Porous anhydrous crystalline trehalose (Present invention)
[13] = before preservation, listed as Porous anhydrous crystalline trehalose (Present invention)

## OC[C@H]1O[C@H](O[C@H]2O[C@H](CO)[C@@H](O)[C@H](O)[C@H]2O)[C@H](O)[C@@H](O)[C@@H]1O [Anhydrous crystalline trehalose (Control)] [α-D-glucosyl α-D-glucoside, reference compound]
[1]
  Time required for dissolution, No. 1: 90 s
  Time required for dissolution, No. 2: 87 s
  Time required for dissolution, No. 3: 96 s
  Time required for dissolution, No. 4: 91 s
  Time required for dissolution, No. 5: 86 s
  Time required for dissolution, Average: 90 s
[2]
  Oil-keeping ability: 38.5
[2]; [9]
  Oil-keeping ability: 38.5
[3]; [9]
  Powdery form of flax seed oil powder: could not keep powdery forms
[4]; listed as Anhydrous crystalline trehalose (Conventional product, Control)
  Specific surface area: 0.465 m^2/g
[5]
  Intrusion volume: 0.03 mL/g
  Mode pore diameter: 0.46 μm
  Median pore diameter: 0.40 μm
[5]; [9]
  Intrusion volume: 0.03 mL/g
[6]; [10]
  2,4-Decadienal: 7.01 μg/ml-vapor phase gas
  2-Heptenal: 0.01 μg/ml-vapor phase gas
  2-Hexenal: 0.02 μg/ml-vapor phase gas
  2-Nonenal: 0.27 μg/ml-vapor phase gas
  2-Octenal: 0.66 μg/ml-vapor phase gas
  Acetoaldehyde: 8.99 μg/ml-vapor phase gas
  Butanal: 0.93 μg/ml-vapor phase gas
  Hexanal: 0.16 μg/ml-vapor phase gas
  Pentanal: 0.55 μg/ml-vapor phase gas
  Propanal: 12.98 μg/ml-vapor phase gas
  Total aldehydes: 31.58 μg/ml-vapor phase gas
[6]; before preservation
  2,4-Decadienal: 6.77 μg/ml-vapor phase gas
  2-Heptenal: 0.00 μg/ml-vapor phase gas
  2-Hexenal: 0.00 μg/ml-vapor phase gas
  2-Nonenal: 0.01 μg/ml-vapor phase gas
  2-Octenal: 0.23 μg/ml-vapor phase gas
  Acetoaldehyde: 8.91 μg/ml-vapor phase gas
  Butanal: 0.66 μg/ml-vapor phase gas
  Hexanal: 0.07 μg/ml-vapor phase gas
  Pentanal: 0.13 μg/ml-vapor phase gas
  Propanal: 10.24 μg/ml-vapor phase gas
  Total aldehydes: 27.02 μg/ml-vapor phase gas

## OC[C@H]1O[C@H](O[C@H]2O[C@H](CO)[C@@H](O)[C@H](O)[C@H]2O)[C@H](O)[C@@H](O)[C@@H]1O [Porous anhydrous crystalline trehalose (treated at 70° C. fo] [α-D-glucosyl α-D-glucoside]
[1]; [11]
  Time required for dissolution, No. 1: 29 s
  Time required for dissolution, No. 2: 34 s
  Time required for dissolution, No. 3: 40 s
  Time required for dissolution, No. 4: 29 s
  Time required for dissolution, No. 5: 31 s
  Time required for dissolution, Average: 33 s
[1]; cold water 10° C.
  Dissolution in cold water in comparison with controls: rapidly dissolved in cold water
[7]; after moisture absorption and drying at 50° C. for one hour
  Crystal moisture content, after drying: 9.66 %, w/w
[7]; before moisture absorption
  Crystal moisture content, before treatment: 0.24 %, w/w
[7]; closed vessel with water, 27° C., two days
  Crystal moisture content, after treatment: 10.32 %, w/w
[2]
  Oil-keeping ability: 62.5
[2]; [11]
  Oil-keeping ability: 62.5
[2]; compared with control crystalline saccharide
  Oil-keeping ability relative to control: about 1.6 folds
[3]
  Powdery form of flax seed oil powder: kept good powdery form
[4]; compared with control(s)
  Specific surface area relative to control crystalline saccharide: ≥ 5 folds
[4]
  Specific surface area: 2.513 m^2/g
[5]
  Intrusion volume: 0.28 mL/g
  Mode pore diameter: 0.20 μm
  Pore diameter of clear peak in pore size distribution chart: less than 5 μm
  Remarks (pores): Having clear pores
  Median pore diameter: 0.29 μm
[5]; listed as porous anhydrous crystalline trehalose
  Intrusion volume: 0.22 mL/g and 0.28 mL/g
[6]; [10]
  2-Heptenal: 0.01 μg/ml-vapor phase gas
[6]; [12]
  2,4-Decadienal: 4.01 μg/ml-vapor phase gas
  2-Hexenal: 0.01 μg/ml-vapor phase gas
  2-Nonenal: 0.19 μg/ml-vapor phase gas
  2-Octenal: 0.43 μg/ml-vapor phase gas
  Acetoaldehyde: 3.77 μg/ml-vapor phase gas
  Butanal: 0.63 μg/ml-vapor phase gas
  Hexanal: 0.11 μg/ml-vapor phase gas
  Pentanal: 0.33 μg/ml-vapor phase gas
  Propanal: 8.66 μg/ml-vapor phase gas
  Total aldehydes: 18.15 μg/ml-vapor phase gas
[6]; before preservation
  2-Heptenal: 0.00 μg/ml-vapor phase gas
  2-Hexenal: 0.00 μg/ml-vapor phase gas
[6]; [13]
  2,4-Decadienal: 3.66 μg/ml-vapor phase gas
  2-Nonenal: 0.00 μg/ml-vapor phase gas
  2-Octenal: 0.11 μg/ml-vapor phase gas
  Acetoaldehyde: 4.13 μg/ml-vapor phase gas
  Butanal: 0.43 μg/ml-vapor phase gas
  Hexanal: 0.00 μg/ml-vapor phase gas
  Pentanal: 0.09 μg/ml-vapor phase gas
  Propanal: 5.77 μg/ml-vapor phase gas
  Total aldehydes: 14.19 μg/ml-vapor phase gas

## OC[C@H]1O[C@@](CO)(O[C@H]2O[C@H](CO)[C@@H](O)[C@H](O)[C@H]2O)[C@@H](O)[C@@H]1O [granulated sugar, sucrose]
[8]
  Specific surface area: about 0.1 m^2/g
